Assay results: patent US20150065709A1, “Aminoquinazoline Derivative And Use Thereof In Preparing Anti-Malignant Tumor Medicament” (METABOMICS, INC, priority 2012, published 2015)
Like-named read-outs stand apart in the source and are kept apart here.

Tests used:
[1] = Long-term toxicity experiment (28 days) in dogs; type: in vivo; details: dogs, 5 mg/kg, 28 days; reaction of Afatinib group greater than compound Ie group
Procedure: (§1) Experiment Animals: rats, male, 6-8 weeks of age, body weight: 180-250 g; dogs, male, about 24 months, body weight: 7-10 kg.
(§2) Preparation of sample: in rat's experiments the mixed formulation powder of the compound Ie was formulated into 0.1, 0.3 and 1 mg/mL homogeneous suspension for use; administration route: oral administration; […]. In dog's experiments the tablets of compound Ie were fed to dogs. […].
(§3) Sample collection: blood was collected at the time points of 1, 10, 20 and 28 days respectively, about 120-200 μL whole blood was collected from 3 animals at each time point. Blood was collected at 1 h, 4 h, 8 h and 24 h after administration.
(§4) Sample analysis: the collected samples were detected by LC-MS/MS, and the instrument model was SHIMADZU20 A-API4000.
(§5) Pharmacokinetic data analysis: the obtained plasma concentration data were fitted and calculated using WinNolin according to non-compartment model.

[2] = Long-term toxicity experiment (28 days) in rats; type: in vivo
Procedure: as §1, §2, §3, §4, §5

HER2 = HER2 (Homo sapiens, UniProt P04626); experiment: Caliper Mobility Shift Assay, inhibition of HER2 kinase activity; type: biochemical
EGFR kinases = EGFR kinases (Homo sapiens, UniProt P00533); experiment: Reversible inhibition test of enzyme activity of EGFR kinases; type: biochemical
A431 = experiment: Inhibition of tumor cells, MTS method; type: cell-based; details: Homo sapiens, A-431, 72 hours
Procedure: (§6) (1) Compounds: in vitro studies the test compounds was dissolved in 100% DMSO and diluted until the final concentration of DMSO was 0.1%. The 0.1% (v/v) DMSO was added into culture medium as solvent control. 9 concentration gradients were tested and each gradient was repeated twice. (2) Tumor cell lines: the tumor cell lines were cultivated in RPMI10 culture medium containing 10% fetal calf serum in incubator at 37° C. in a 5% CO2 air incubator. The tested tumor cell lines were: BT474, MDA-MB-231, SK-Br-3, A431, H292, H1975, HCC827, A549, H1650 and H1734. (3) MTS method: cells were seeded into 96-well plate to give a density of about 3000 cells per well, and incubated overnight in a humidified incubator at 37° C. In the next day, the test compounds were added to the wells and further incubated for 72 hours. The cell activity was detected using MTS. IC50 was calculated (the concentration of a compound that is required for 50% inhibition of the cell growth versus the DMSO control group, using nonlinear regression analysis of software GraphPad Prism). […] In a 96-well plate, each test compound was tested at 9 dosage concentrations and each dosage was made in triplicate. Samples were added in 100 μL/well. Cell control and negative control wells contained diluents instead of compounds. Except the negative control well, 100 μL cell suspension of complete medium was added into each test well, wherein corresponding cell numbers were included to assure that the cells in cell control well just cover the bottom of the well as the required incubation time was reached. The plate was incubated in a CO2 incubator at 37° C. for 48 hours. The liquid in test wells was removed by pipetting. 100 μL CCK-8 (Cell counting Kit-8, purchased from DOJINDO Molecular Technologies) detection liquid (containing 10% CCK-8, 5% FBS corresponding medium) was added into each test well, then the plate was incubated in a CO2 incubator under at 37° C. for 3 hours. OD value was detected by ELIASA at A450 nm. Cell viability percentage (%)=(O.D. test compound-O.D. blank)/(O.D. control-O.D. blank)×100. Mean value was calculated for each 3 repeated wells, and IC50 was calculated using nonlinear regression (fitted curve) data analysis method.

BT474 = experiment: Inhibition of tumor cells, MTS method; type: cell-based; details: Homo sapiens, BT-474, 72 hours
Procedure: as §6

A549 = experiment: Inhibition of tumor cells, MTS method; type: cell-based; details: Homo sapiens, 72 hours
Procedure: as §6

SK-Br-3 = experiment: Inhibition of tumor cells, MTS method; type: cell-based; details: Homo sapiens, 72 hours
Procedure: as §6

H1650 = experiment: Inhibition of tumor cells, MTS method; type: cell-based; details: Homo sapiens, NCI-H1650, 72 hours
Procedure: as §6

H1734 = experiment: Inhibition of tumor cells, MTS method; type: cell-based; details: Homo sapiens, NCI-H1734, 72 hours
Procedure: as §6

H1975 = experiment: Inhibition of tumor cells, MTS method; type: cell-based; details: Homo sapiens, NCI-H1975, 72 hours
Procedure: as §6

H292 = experiment: Inhibition of tumor cells, MTS method; type: cell-based; details: Homo sapiens, NCI-H292, 72 hours
Procedure: as §6

HCC827 = experiment: Inhibition of tumor cells, MTS method; type: cell-based; details: Homo sapiens, 72 hours
Procedure: as §6

[3] = Pharmacokinetic experiments in CD-1 mice; type: in vivo; details: male, mouse, plasma; for half-life: read-out: Terminal t1/2 (converted); for Vd: read-out: Vss
Procedure: Experiment animals: CD-1 mice, male, 6-7 weeks of age; body weight: 20-25 g; Preparation of samples: the test compounds respectively were formulated to 0.2 mg/mL (for intravenous administration) and 1.0 mg/mL (for oral administration) for use. Administration routes: oral administration/intravenous administration. Amount and frequency of administration: 5 mL/kg for single administration.
Sample collection: blood was collected at the time points of 5 min, 15 min, 30 min, 1 h, 2 h, 4 h, 8 h and 24 h, about […] whole blood was collected from 3 animals at each time point. All of the animals were euthanized after the experiments.
Sample analysis: the collected samples were detected by LC-MS/MS, and the instrument model is SHIMADZU20A-API4000.
as §5

EGFR = EGFR (Homo sapiens, UniProt P00533); experiment: Caliper Mobility Shift Assay, inhibition of EGFR kinase activity; type: biochemical
MDA-MB-231 = experiment: Inhibition of tumor cells, MTS method; type: cell-based; details: Homo sapiens, 72 hours
Procedure: as §6

Chain of HER2 (P04626 23-1255): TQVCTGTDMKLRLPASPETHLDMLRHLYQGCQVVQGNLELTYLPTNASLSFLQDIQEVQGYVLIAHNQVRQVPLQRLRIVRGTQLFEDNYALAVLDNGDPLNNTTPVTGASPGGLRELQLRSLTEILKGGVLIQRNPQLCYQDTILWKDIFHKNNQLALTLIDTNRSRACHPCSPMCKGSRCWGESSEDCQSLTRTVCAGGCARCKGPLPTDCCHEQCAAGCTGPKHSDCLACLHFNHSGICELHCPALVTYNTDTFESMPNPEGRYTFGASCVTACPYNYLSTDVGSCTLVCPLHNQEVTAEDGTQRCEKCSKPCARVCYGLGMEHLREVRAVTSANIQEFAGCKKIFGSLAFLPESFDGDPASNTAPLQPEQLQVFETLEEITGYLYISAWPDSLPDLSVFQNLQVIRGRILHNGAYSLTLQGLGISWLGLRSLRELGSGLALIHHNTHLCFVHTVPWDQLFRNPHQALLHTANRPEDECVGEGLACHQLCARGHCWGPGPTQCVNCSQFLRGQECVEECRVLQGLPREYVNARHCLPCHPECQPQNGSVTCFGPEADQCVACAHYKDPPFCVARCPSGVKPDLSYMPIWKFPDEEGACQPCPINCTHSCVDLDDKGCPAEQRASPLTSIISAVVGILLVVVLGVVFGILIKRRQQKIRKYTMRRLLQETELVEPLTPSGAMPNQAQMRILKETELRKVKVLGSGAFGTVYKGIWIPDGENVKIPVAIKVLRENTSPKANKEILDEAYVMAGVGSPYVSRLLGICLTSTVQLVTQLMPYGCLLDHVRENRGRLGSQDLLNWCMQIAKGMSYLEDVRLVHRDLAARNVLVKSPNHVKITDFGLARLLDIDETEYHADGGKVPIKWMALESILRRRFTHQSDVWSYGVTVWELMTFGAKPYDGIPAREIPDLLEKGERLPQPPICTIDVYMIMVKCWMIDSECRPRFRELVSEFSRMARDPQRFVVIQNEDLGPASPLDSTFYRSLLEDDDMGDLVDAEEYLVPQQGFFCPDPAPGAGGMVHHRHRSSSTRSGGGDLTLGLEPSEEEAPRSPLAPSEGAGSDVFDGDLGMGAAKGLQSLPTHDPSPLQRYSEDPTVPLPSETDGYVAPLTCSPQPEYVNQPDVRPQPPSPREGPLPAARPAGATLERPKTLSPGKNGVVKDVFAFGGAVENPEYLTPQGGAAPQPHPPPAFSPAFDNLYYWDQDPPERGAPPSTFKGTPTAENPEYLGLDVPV
Chain of EGFR (P00533 25-1210): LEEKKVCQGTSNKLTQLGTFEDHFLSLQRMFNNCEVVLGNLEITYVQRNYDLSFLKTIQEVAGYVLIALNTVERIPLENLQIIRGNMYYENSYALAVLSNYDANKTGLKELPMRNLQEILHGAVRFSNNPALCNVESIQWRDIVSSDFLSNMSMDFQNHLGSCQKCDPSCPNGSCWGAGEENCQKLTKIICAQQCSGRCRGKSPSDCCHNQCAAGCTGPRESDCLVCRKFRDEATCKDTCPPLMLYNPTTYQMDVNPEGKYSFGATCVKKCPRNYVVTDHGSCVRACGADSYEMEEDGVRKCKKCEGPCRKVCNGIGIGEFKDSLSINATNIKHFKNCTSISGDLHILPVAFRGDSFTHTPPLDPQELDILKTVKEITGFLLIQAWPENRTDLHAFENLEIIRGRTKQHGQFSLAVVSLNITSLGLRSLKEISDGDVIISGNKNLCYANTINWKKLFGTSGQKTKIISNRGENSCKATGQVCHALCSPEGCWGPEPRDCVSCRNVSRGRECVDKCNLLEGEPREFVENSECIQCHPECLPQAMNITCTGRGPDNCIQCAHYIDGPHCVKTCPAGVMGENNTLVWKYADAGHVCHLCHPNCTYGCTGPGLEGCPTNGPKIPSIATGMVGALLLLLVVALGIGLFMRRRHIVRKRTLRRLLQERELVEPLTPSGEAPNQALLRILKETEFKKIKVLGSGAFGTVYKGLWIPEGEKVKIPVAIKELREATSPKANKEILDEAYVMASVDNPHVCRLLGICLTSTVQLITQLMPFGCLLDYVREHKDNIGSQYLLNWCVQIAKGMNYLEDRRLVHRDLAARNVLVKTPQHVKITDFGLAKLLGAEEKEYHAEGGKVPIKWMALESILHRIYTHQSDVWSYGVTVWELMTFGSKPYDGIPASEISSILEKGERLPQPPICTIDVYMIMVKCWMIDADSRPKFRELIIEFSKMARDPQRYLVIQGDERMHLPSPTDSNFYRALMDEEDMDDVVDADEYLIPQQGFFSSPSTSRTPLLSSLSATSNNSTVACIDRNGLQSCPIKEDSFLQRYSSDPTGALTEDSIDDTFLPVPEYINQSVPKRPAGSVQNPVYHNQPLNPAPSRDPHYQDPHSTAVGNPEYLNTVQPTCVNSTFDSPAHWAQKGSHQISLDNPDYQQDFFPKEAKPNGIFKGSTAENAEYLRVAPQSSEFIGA
Chain of EGFR kinases (P00533 25-1210): as above

| SMILES | IC50 (HER2) | IC50 (A431) | IC50 (BT474) | IC50 (A549) | IC50 (SK-Br-3) | IC50 (H1650) | IC50 (H1734) | IC50 (H1975) | IC50 (H292) | IC50 (HCC827) | AUC(0-inf) ([3]; 1 mg/kg Intravenous Injection) | AUC(0-t) ([3]; 1 mg/kg Intravenous Injection) | MRT inf ([3]; 1 mg/kg Intravenous Injection) | clearance ([3]; 1 mg/kg Intravenous Injection) | half-life ([3]; 1 mg/kg Intravenous Injection) | Vd ([3]; 1 mg/kg Intravenous Injection) | AUC(0-t) ([3]; 5 mg/kg Oral Administration) | Cmax ([3]; 5 mg/kg Oral Administration) | Tmax ([3]; 5 mg/kg Oral Administration) | IC50 (EGFR) | further results |
| --- | --- | --- | --- | --- | --- | --- | --- | --- | --- | --- | --- | --- | --- | --- | --- | --- | --- | --- | --- | --- | --- |
| CN(C)C/C=C/C(=O)Nc1cc2c(Nc3ccc(F)c(Cl)c3)ncnc2cc1O[C@H]1CCOC1 [Afatinib, reference compound] | – | – | – | – | – | – | – | – | – | – | – | – | – | – | – | – | – | – | – | – | toxicity reaction [1]: toxicity reactions; toxicity reaction ([2]; rat, in vivo, 10 mg/kg): very significant toxicity reaction; weight during recovery phase after drug withdrawal ([2]; rat, in vivo, 10 mg/kg): reduced weight during the recovery phase; toxicity reaction ([2]; rats, 5 mg/kg, 28 days): significant toxicity reaction |
| CN(C/C=C/C(=O)Nc1cc2c(Nc3ccc(F)c(Cl)c3)ncnc2cc1OC1CCOC1)Cc1ccccc1 (stereo not drawn) [Compound Ia] | 13 nM | 4.91 µM | 0.264 µM | 5.93 µM | 0.42 µM | 6.57 µM | 1.34 µM | 0.882 µM | 0.873 µM | 0.015 µM | 110 ng·h/mL | 104 ng·h/mL | 0.616 h | 153 mL/min/kg | 0.729 h | 5.47 L/kg | 91.4 ng·h/mL | 31.4 ng/mL | 1.17 h | 2 nM | reversibility of inhibition of EGFR kinases (EGFR kinases): irreversibility; AUC(0-inf) ([3]; 5 mg/kg Oral Administration): 140 ng·h/mL; half-life ([3]; 5 mg/kg Oral Administration): 1.76 h |
| O=C(/C=C/c1ccccn1)Nc1cc2c(Nc3ccc(F)c(Cl)c3)ncnc2cc1OC1CCOC1 (stereo not drawn) [Compound Ib] | 90 nM | 0.899 µM | 3.18 µM | – | 3.1 µM | – | – | 30.8 µM | 0.502 µM | 0.157 µM | – | – | – | – | – | – | – | – | – | 3.9 nM | IC50 (MDA-MB-231): 4.01 µM |
| COc1cc2ncnc(Nc3ccc(F)c(Cl)c3)c2cc1NC(=O)/C=C/CN(C)Cc1ccccc1 [Compound Ic] | 15 nM | 13 µM | 0.278 µM | > 10 µM | 0.418 µM | > 10 µM | 5.26 µM | 0.715 µM | 0.727 µM | 0.012 µM | 206 ng·h/mL | 163 ng·h/mL | 3.01 h | 87.2 mL/min/kg | 2.63 h | 14.7 L/kg | 283 ng·h/mL | 66.7 ng/mL | 2 h | 1.3 nM | IC50 (MDA-MB-231): 13.9 µM |
| COc1cc2ncnc(Nc3ccc(F)c(Cl)c3)c2cc1NC(=O)/C=C/c1ccccn1 [Compound Id] | > 10000 nM | – | 2.14 µM | – | 0.155 µM | – | – | – | 44.1 µM | 0.04 µM | – | – | – | – | – | – | – | – | – | 5.1 nM | – |
